≈ marks a conversion by molar mass, not a printed value. Like-named read-outs stand apart in the source and are kept apart here.
Experiments:
D. pneumoniae UC 41 = test: standard microplate test in BHI Agar (MIC), D. pneumoniae UC 41; format: cell-based; settings: Streptococcus pneumoniae, UC41, 20 h, D. pneumoniae UC 41, read-out: Minimum Inhibitory Concentration
Protocol: (§1) Compounds were also tested in a standard microplate test in Brain Heart Infusion (BHI) Agar, at a concentration of 1 mg/ml. Incubation is at 37° and end points are read at 20 hours. Brain Heart Infusion Agar (supplied by Difco Laboratories, Detroit, Michigan, U.S.A.) has the following composition:
(§2) Compounds (7β), (7α) and (9) were tested again along with compounds (11) and (14β) against a neamine control using the same conditions as given above.

P. morgani UC 3186 = test: standard microplate test in BHI Agar (MIC), P. morgani UC 3186; format: cell-based; settings: 20 h, P. morgani UC 3186, retest table, neamine control, read-out: Minimum Inhibitory Concentration
Protocol: as §1, §2

P. mirabilis A-63 = test: standard microplate test in BHI Agar (MIC), P. mirabilis A-63; format: cell-based; settings: Proteus mirabilis, A63, 20 h, P. mirabilis A-63, retest table, neamine control, read-out: Minimum Inhibitory Concentration
Protocol: as §1, §2

B. subtilis = test: standard disc plate assay, 12.5 mm paper discs (zone of inhibition), B. subtilis; format: cell-based, Bacillus subtilis; settings: for zone of inhibition at 5000 µg/mL / zone of inhibition at 10000 µg/mL: Bacillus subtilis, B. subtilis; for zone of inhibition at 5000 µg/mL: 5 mg/ml; for zone of inhibition at 10000 µg/mL: 10 mg/ml; for active against Bacillus subtilis: conclusion in words from the above results
From the text: (§3) The novel intermediates, disclosed herein, are useful to make novel aminoglycoside antibiotics. These novel aminoglycoside antibiotics are antibacterially active, and, thus, they can be used in various environments to eradicate or control sensitive bacteria. Following are in vitro antibacterial test results for representative compounds of the subject invention. The results were obtained with a standard disc plate assay using 12.5 mm paper discs.

S. flexneri UC 143 = test: standard microplate test in BHI Agar (MIC), S. flexneri UC 143; format: cell-based; settings: Shigella flexneri, UC143, 20 h, retest table, neamine control, read-out: Minimum Inhibitory Concentration
Protocol: as §1, §2

S. typhi TG-3 = test: standard microplate test in BHI Agar (MIC), S. typhi TG-3; format: cell-based; settings: Salmonella enterica, 20 h, read-out: Minimum Inhibitory Concentration
Protocol: as §1, §2

P. rettgeri UC 339 = test: standard microplate test in BHI Agar (MIC), P. rettgeri UC 339; format: cell-based; settings: Providencia rettgeri, UC339, 20 h, P. rettgeri UC 339, retest table, neamine control, read-out: Minimum Inhibitory Concentration
Protocol: as §1, §2

P. vulgaris UC 93 = test: standard microplate test in BHI Agar (MIC), P. vulgaris UC 93; format: cell-based; settings: Proteus vulgaris, UC93, 20 h, P. vulgaris UC 93, read-out: Minimum Inhibitory Concentration
Protocol: as §1, §2

S. aureus UC 570 = test: standard microplate test in BHI Agar (MIC), S. aureus UC 570; format: cell-based; settings: Staphylococcus aureus, first table, read-out: Minimum Inhibitory Concentration
Protocol: as §1, with “composition: […]” for “composition:”

S. marcescens UC 131 = test: standard microplate test in BHI Agar (MIC), S. marcescens UC 131; format: cell-based; settings: Serratia marcescens, UC131, 20 h, S. marcescens UC 131, retest table, neamine control, read-out: Minimum Inhibitory Concentration
Protocol: as §1, §2

St. faecalis UC 694 = test: standard microplate test in BHI Agar (MIC), St. faecalis UC 694; format: cell-based; settings: Enterococcus faecalis, UC694, 20 h, read-out: Minimum Inhibitory Concentration
Protocol: as §1, §2

Ps. aeruginosa UC 95 = test: standard microplate test in BHI Agar (MIC), Ps. aeruginosa UC 95; format: cell-based; settings: Pseudomonas aeruginosa, UC95, 20 h, Ps. aeruginosa UC 95, read-out: Minimum Inhibitory Concentration
Protocol: as §1, §2

S. hemolyticus UC 152 = test: standard microplate test in BHI Agar (MIC), S. hemolyticus UC 152; format: cell-based, Streptococcus hemolyticus; settings: for MIC: Streptococcus pyogenes
Protocol: as §1, §2

S. aureus UC 746 = test: standard microplate test in BHI Agar (MIC), S. aureus UC 746; format: cell-based; settings: Staphylococcus aureus, UC746, 37°, 20 h, first table, read-out: Minimum Inhibitory Concentration
Protocol: as §1, with “composition: […]” for “composition:”

B. cereus = test: standard disc plate assay, 12.5 mm paper discs (zone of inhibition), B. cereus; format: cell-based, Bacillus cereus; settings: for zone of inhibition at 5000 µg/mL / zone of inhibition at 10000 µg/mL: Bacillus cereus, B. cereus; for zone of inhibition at 5000 µg/mL: 5 mg/ml; for zone of inhibition at 10000 µg/mL: 10 mg/ml; for active against Bacillus cereus: conclusion in words from the above results
From the text: as §3

S. schottmuelleri UC 126 = test: standard microplate test in BHI Agar (MIC), S. schottmuelleri UC 126; format: cell-based; settings: 20 h, read-out: Minimum Inhibitory Concentration
Protocol: as §1, §2

S. aureus UC 76 = test: standard microplate test in BHI Agar (MIC), S. aureus UC 76; format: cell-based, Staphylococcus aureus; settings: for MIC: Staphylococcus aureus, UC76, 20 h, read-out: Minimum Inhibitory Concentration
Protocol: as §1, §2

K. pneumoniae UC 58 = test: standard microplate test in BHI Agar (MIC), K. pneumoniae UC 58; format: cell-based; settings: Klebsiella pneumoniae, UC58, 20 h
Protocol: as §1, §2

E. coli UC 45 = test: standard microplate test in BHI Agar (MIC), E. coli UC 45; format: cell-based; settings: Escherichia coli, UC45, 20 h, E. coli UC 45, read-out: Minimum Inhibitory Concentration
Protocol: as §1, §2

[1] = BHI agar, 37°, 20 h, first table, *run on different day
[2] = retest table, group (7β), (14β), neamine control
[3] = BHI agar, 37°, 20 h, first table
[4] = retest table, group (9), (11), (7α), neamine control

Compound: NC[C@H]1O[C@H](O[C@H]2[C@H](O)[C@@H](O[C@@H]3O[C@H](CO)[C@@H](O)[C@H]3O)[C@H](N)C[C@@H]2N)[C@H](N)[C@@H](O)[C@@H]1O [(7β), 6-O-(β-D-Ribofuranosyl)neamine]
- MIC (D. pneumoniae UC 41; [1]): > 1000 µg/mL
- MIC (D. pneumoniae UC 41; [2]): 1000 µg/mL (≈ 2200 µM)
- MIC (P. morgani UC 3186; group (7β), (14β)): 1000 µg/mL (≈ 2200 µM)
- MIC (P. mirabilis A-63; group (7β), (14β)): 1000 µg/mL (≈ 2200 µM)
- zone of inhibition at 5000 µg/mL (B. subtilis): 35 mm
- zone of inhibition at 10000 µg/mL (B. subtilis): 38 mm
- active against Bacillus subtilis (B. subtilis): active
- MIC (S. flexneri UC 143; group (7β), (14β)): 1000 µg/mL (≈ 2200 µM)
- MIC (S. typhi TG-3): 1000 µg/mL (≈ 2200 µM)
- MIC (P. rettgeri UC 339; group (7β), (14β)): 1000 µg/mL (≈ 2200 µM)
- MIC (P. vulgaris UC 93; [1]): 500 µg/mL (≈ 1100 µM)
- MIC (P. vulgaris UC 93; [2]): 1000 µg/mL (≈ 2200 µM)
- MIC (S. aureus UC 570; UC570, 37°, 20 h, *run on different day): 1000 µg/mL (≈ 2200 µM)
- MIC (S. marcescens UC 131; group (7β), (14β)): 1000 µg/mL (≈ 2200 µM)
- MIC (St. faecalis UC 694; S. faecalis UC 694, retest table, group (7β), (14β), neamine control): 1000 µg/mL (≈ 2200 µM)
- MIC (St. faecalis UC 694; St. faecalis UC 694, BHI agar, 37°, 20 h, first table, *run on different day): > 1000 µg/mL
- MIC (Ps. aeruginosa UC 95; [1]): > 1000 µg/mL
- MIC (Ps. aeruginosa UC 95; [2]): 1000 µg/mL (≈ 2200 µM)
- MIC (S. hemolyticus UC 152; UC152, 20 h, read-out: Minimum Inhibitory Concentration, S. hemolyticus UC 152, BHI agar, 37°, 20 h, first table, *run on different day): 62.5 µg/mL (≈ 138 µM)
- MIC (S. hemolyticus UC 152; UC152, 20 h, S. hemolyticus UC 152, retest table, group (7β), (14β), neamine control, read-out: Minimum Inhibitory Concentration): 250 µg/mL (≈ 550 µM)
- MIC (S. aureus UC 746; *run on different day): 500 µg/mL (≈ 1100 µM)
- zone of inhibition at 5000 µg/mL (B. cereus): 25 mm
- zone of inhibition at 10000 µg/mL (B. cereus): 34 mm
- active against Bacillus cereus (B. cereus): active
- MIC (S. schottmuelleri UC 126; BHI agar, 37°, first table, *run on different day): 250 µg/mL (≈ 550 µM)
- MIC (S. schottmuelleri UC 126; [2]): 500 µg/mL (≈ 1100 µM)
- MIC (S. aureus UC 76; S. aureus 284 UC 76, BHI agar, 37°, 20 h, first table, *run on different day): 1000 µg/mL (≈ 2200 µM)
- MIC (S. aureus UC 76; S. aureus UC 76, retest table, group (7β), (14β), neamine control): 500 µg/mL (≈ 1100 µM)
- MIC (K. pneumoniae UC 58; read-out: Minimum Inhibitory Concentration, K. pneumoniae UC 58, BHI agar, 37°, 20 h, first table, *run on different day): 62.5 µg/mL (≈ 138 µM)
- MIC (K. pneumoniae UC 58; K. pneumoniae UC 58, retest table, group (7β), (14β), neamine control, read-out: Minimum Inhibitory Concentration): 250 µg/mL (≈ 550 µM)
- MIC (E. coli UC 45; [1]): 500 µg/mL (≈ 1100 µM)
- MIC (E. coli UC 45; [2]): 1000 µg/mL (≈ 2200 µM)

Compound: CC1(O[C@@H]2[C@@H](O)[C@H](O[C@H]3O[C@H](CN)[C@@H](O)[C@H](O)[C@H]3N)[C@@H](N)C[C@H]2N)O[C@H]2O[C@H](CO)[C@@H](O)[C@H]2O1 (stereo partly shown) [Compound (9)]
- MIC (D. pneumoniae UC 41; [3]): > 1000 µg/mL
- MIC (D. pneumoniae UC 41; [4]): 125 µg/mL (≈ 252 µM)
- MIC (P. morgani UC 3186; group (9), (11), (7α)): 125 µg/mL (≈ 252 µM)
- MIC (P. mirabilis A-63; group (9), (11), (7α)): 500 µg/mL (≈ 1010 µM)
- zone of inhibition at 5000 µg/mL (B. subtilis): 32 mm
- zone of inhibition at 10000 µg/mL (B. subtilis): 34 mm
- active against Bacillus subtilis (B. subtilis): active
- MIC (S. flexneri UC 143; group (9), (11), (7α)): 500 µg/mL (≈ 1010 µM)
- MIC (S. typhi TG-3): 250 µg/mL (≈ 504 µM)
- MIC (P. rettgeri UC 339; group (9), (11), (7α)): 1000 µg/mL (≈ 2010 µM)
- MIC (P. vulgaris UC 93; [3]): 500 µg/mL (≈ 1010 µM)
- MIC (P. vulgaris UC 93; [4]): 125 µg/mL (≈ 252 µM)
- MIC (S. aureus UC 570; UC570, 20 h, 37°): 250 µg/mL (≈ 504 µM)
- MIC (S. marcescens UC 131; group (9), (11), (7α)): 500 µg/mL (≈ 1010 µM)
- MIC (St. faecalis UC 694; S. faecalis UC 694, retest table, group (9), (11), (7α), neamine control): 1000 µg/mL (≈ 2010 µM)
- MIC (St. faecalis UC 694; St. faecalis UC 694, BHI agar, 37°, 20 h, first table): > 1000 µg/mL
- MIC (Ps. aeruginosa UC 95; [3]): > 1000 µg/mL
- MIC (Ps. aeruginosa UC 95; [4]): 1000 µg/mL (≈ 2010 µM)
- Minimum Inhibitory Concentration (S. hemolyticus UC 152; S. hemolyticus UC 152, retest table, group (9), (11), (7α), neamine control): 3.9 µg/mL
- MIC (S. hemolyticus UC 152; UC152, S. hemolyticus UC 152, BHI agar, 37°, 20 h, first table, read-out: Minimum Inhibitory Concentration): 3.9 µg/mL (≈ 7.85 µM)
- MIC (S. aureus UC 746): 250 µg/mL (≈ 504 µM)
- zone of inhibition at 5000 µg/mL (B. cereus): 29 mm
- zone of inhibition at 10000 µg/mL (B. cereus): 34 mm
- active against Bacillus cereus (B. cereus): active
- MIC (S. schottmuelleri UC 126; BHI agar, 37°, first table): 250 µg/mL (≈ 504 µM)
- MIC (S. schottmuelleri UC 126; [4]): 62.5 µg/mL (≈ 126 µM)
- MIC (S. aureus UC 76; S. aureus UC 76, retest table, group (9), (11), (7α), neamine control): 125 µg/mL (≈ 252 µM)
- active against Staphylococcus aureus (S. aureus UC 76; conclusion in words from the above results): active
- MIC (K. pneumoniae UC 58; read-out: Minimum Inhibitory Concentration, K. pneumoniae UC 58, BHI agar, 37°, 20 h, first table): 62.5 µg/mL (≈ 126 µM)
- MIC (K. pneumoniae UC 58; K. pneumoniae UC 58, retest table, group (9), (11), (7α), neamine control, read-out: Minimum Inhibitory Concentration): 31.2 µg/mL (≈ 62.8 µM)
- MIC (E. coli UC 45; [3]): 250 µg/mL (≈ 504 µM)
- MIC (E. coli UC 45; [4]): 250 µg/mL (≈ 504 µM)
